According to paper PMC7782499, “Progerinin, an optimized progerin-lamin A binding inhibitor, ameliorates premature senescence phenotypes of Hutchinson-Gilford progeria syndrome” (Communications Biology, 2021):

System: Lmna G609G/G609G mouse
Test: Life span of Lmna G609G/G609G progeria model mice
Format: in vivo
Details: i.p. 20 mg/kg twice a week from 5 weeks old
Text: Fig. 3 In vivo favorable effect of SLC-D011. A Gross morphology of Lmna^G609G/G609G mice (10 weeks old) was ameliorated after injection with SLC-D011. At the same age, the experimental group (D011) of mice were larger than vehicle-injected control (Con) subjects regardless of gender. B, C SLC-D011 increases body weight B and extends life span C of Lmna^G609G/G609G progeria model mouse (Con: n = 8; SLC-D011: n = 8). Compared with 14.8 weeks of average (ave) life span with maximum (max) life span of 15.5 weeks, 20 mg/kg of intraperitoneal (i.p) injection (twice a week) of SLC-D011 could extend the life span upto 19 weeks (max = 21 weeks). Lmna^G609G/G609G mice were injected with SLC-D011 from age of 5-week old, *p < 0.05. D Gross morphology of SLC-D011 injected Lmna^G609G/+ mouse. […] E SLC-D011 increases body weights of Lmna^G609G/+ mice (Con: n = 10; SLC-D011: n = 11), *p < 0.05. F Favorable effect of SLC-D011 on life span of Lmna^G609G/+ mice. […] Only the axis reads Age (weeks).
Fig. 4 Oral administration of SLC-D011 suppresses premature aging features. […] H Anti-aging effects of single treatment of SLC-D011 or lonafarnib were measured in HGPS patients-derived cells (AG11513, AG03199, AG11498, and AG03198, Coriell Cell Repositories). […]

**Q.** How did the Maximum life span turn out when `CC1(C)Oc2cc3oc(=O)ccc3cc2C[C@@H]1OC/C=C/c1ccccc1` [SLC-D011] was run?
**A.** Its Maximum life span is 21 weeks.
